pIC50: −log10 of the molar value.
Legend:
APE1 [1] = molecular target: T1, APE1 (Homo sapiens, UniProt P27695); test: Fluorogenic kinetic qHTS APE1 incision assay (primary screen and retest of cherrypicked samples); format: biochemical;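 note: purified APE1 cleaving a fluorophore/dark-quencher labelled 17-mer duplex DNA bearing a tetrahydrofuran AP site, fluorescence rise followed kinetically over the first 2 min, inhibition normalized to controls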
T1 construct: made in house

APE1 [2] = molecular target: T1, APE1; test: Gel-based APE1 incision assay with fluorescence (TAMRA) detection; format: biochemical
APE1 [3] = molecular target: T1, APE1; test: Fluorescence polarization (FP) displacement assay of APE1 binding to AP-DNA probe; settings: read-out: FP IC50;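 note: TAMRA 5′-labeled duplex DNA with THF abasic site (5 nM) and APE1 (20 nM), Mg2+-free buffer, 15 min at room temperature, inhibition seen as lowered polarization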
[4] = molecular target: double-stranded 17-mer DNA fragment; test: ThO (Thiazole Orange) DNA displacement assay; format: binding; settings: read-out: ThO-DNA binding IC50;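 note: miniaturized displacement of the intercalating dye from unlabeled duplex DNA, used to flag nonspecific DNA binders, chiefly intercalators, groove binders may be missed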
E. coli Endo IV = molecular target: T2, E. coli Endo IV (Escherichia coli, UniProt P0A6C1); test: E. coli Endo IV profiling counterscreen; format: biochemical; settings: read-out: EndoIV IC50;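 note: selectivity counterscreen of candidate APE1 inhibitors against the bacterial endonuclease Endo IV, run in the same assay format as the primary APE1 high-throughput screen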
T2 construct: made in house
Excerpt: In order to screen out nonselective compounds, such as non-specific DNA binders and inhibitors of related enzymes, we used a miniaturized ThO DNA displacement assay and a counterscreen against the bacterial endonuclease E. coli Endo IV, respectively, following the previously published protocols [21].
To probe the selectivity of the candidate APE1 inhibitors, we tested them against E. coli EndoIV [36], employing the same assay as used in the HTS.

[5] = initial quantitative high-throughput screen, read-out: APE1 qHTS IC50
[6] = retest of cherrypicked sample, read-out: APE1 Retest IC50
[7] = estimated IC50, fluorophore detection, entries 113-223, read-out: F-PAGE Assay IC50
[8] = entries 113-223: fluorophore detection, estimated IC50, read-out: Gel-based electrophoretic separation assay with fluorophore detection, estimated IC50 (column headed Radiotracer Assay (%Activity))

T1 sequence (P27695 whole entry): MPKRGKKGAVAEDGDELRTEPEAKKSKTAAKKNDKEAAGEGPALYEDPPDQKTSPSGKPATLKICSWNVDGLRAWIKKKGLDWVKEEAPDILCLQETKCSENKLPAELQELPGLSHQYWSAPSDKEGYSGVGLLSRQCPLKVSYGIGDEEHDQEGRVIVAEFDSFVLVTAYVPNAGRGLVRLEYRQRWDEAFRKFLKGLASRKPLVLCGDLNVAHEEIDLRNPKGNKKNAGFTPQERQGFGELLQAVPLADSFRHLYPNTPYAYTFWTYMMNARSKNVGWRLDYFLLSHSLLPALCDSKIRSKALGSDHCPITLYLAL

| Compound | pIC50 (APE1 [1]; [5]) | pIC50 (APE1 [1]; [6]) | pIC50 (APE1 [2]; [7]) | pIC50 (APE1 [3]) | pIC50 [4] | pIC50 (E. coli Endo IV) | pIC50 (APE1 [2]; [8]) |
| --- | --- | --- | --- | --- | --- | --- | --- |
| NS(=O)(=O)c1ccc(NC(=O)CSc2nnc(NC3CC3)s2)cc1 [MLS002169032] | 4.97 | 4.99 | 5.20 | < 4.24 | < 4.24 | < 4.24 |  |
| O=C(CSc1nc2sc3c(c2c(=O)n1-c1ccccc1)CCCC3)NN=Cc1ccccc1C(=O)O [MLS001147809] | 4.97 | 4.84 |  | < 4.24 | < 4.24 | < 4.24 | 4.90 |
| COc1ccccc1N(CC(=O)NCc1ccco1)S(=O)(=O)c1ccc(C)cc1 [MLS001219746] | 4.67 | 4.79 | 5.05 | < 4.24 | < 4.24 | < 4.24 |  |
| O=C(Nc1ccc2oc(-c3ccccc3F)nc2c1)c1ccc([N+](=O)[O-])o1 [MLS001194759] | 5.57 | 5.49 | 5.60 | < 4.24 | 4.99 | < 4.24 |  |
| Cc1ccc(NC(=O)CN(C)C(=O)c2cc(-c3ccco3)nc3ccccc23)cc1 [MLS001099510] | 5.28 | 4.64 | 5.46 | < 4.24 | < 4.24 | < 4.24 |  |
| CCOc1ccc(NC(=O)c2cccc(-n3cccc3)c2)cc1S(=O)(=O)N1CCOCC1 [MLS002164959] | 5.89 | 4.94 | 5.55 | < 4.24 | < 4.24 | < 4.24 |  |
| CCCCN(C(=O)c1cccc(-n2cccc2)c1)c1c(N)n(Cc2ccccc2)c(=O)[nH]c1=O [MLS001159279] | 5.57 | 4.89 | 5.55 | < 4.24 | < 4.24 | < 4.24 |  |
| CCOc1ccc(NC(=O)CN(C)C(=O)C2COc3ccccc3O2)cc1OCC (centres unmarked) [MLS002248300] | 4.67 | 4.49 |  | < 4.24 | < 4.24 | < 4.24 | 4.70 |
| CN(CC(=O)Nc1cccc(F)c1)C(=O)c1cccc(-n2cccc2)c1 [MLS001071694] | 5.47 | 5.29 | 5.30 | 4.64 | < 4.24 | < 4.24 |  |
| COc1ccc(S(=O)(=O)NCCC(=O)NC2CCCCC2C)cc1[N+](=O)[O-] (centres unmarked) [MLS002251710] | 4.57 | 4.79 |  | 4.69 | < 4.24 | < 4.24 | 4.95 |
| CC1=C(C(=O)OC(C)C)C(c2ccc(Cl)cc2)n2c(s/c(=C\c3ccc(OCC(=O)O)cc3)c2=O)=N1 (centres unmarked) [MLS001178474] | 5.17 | 5.29 | 5.85 | < 4.24 | 4.99 | < 4.24 |  |
| N#Cc1c(NC(=O)COC(=O)c2ccc(O)cc2O)sc2c1CCC2 [MLS001159876] | 4.92 | 4.74 |  | < 4.24 | 4.94 | < 4.24 | 4.95 |
| CSCC[C@H](NS(=O)(=O)c1ccc(C(C)=O)cc1)c1nnc2ccccn12 [MLS001158971] | 4.67 | 5.04 |  | < 4.24 | < 4.24 | < 4.24 | 4.65 |
| NS(=O)(=O)c1cccc(NC(=O)c2ccc3nc[nH]c3c2)c1 [MLS001177378] | 4.57 | 4.34 |  | < 4.24 | 4.49 | < 4.24 | 4.90 |
| Nc1c(S(=O)(=O)O)cc(NC(=O)c2ccccc2)c2c1C(=O)c1ccccc1C2=O [MLS001194971] | 4.67 | 4.74 | 5.10 | < 4.24 | < 4.24 | < 4.24 |  |
| CCNc1nc(NCC)n2c(SCC(=O)Nc3cccc(F)c3)nnc2n1 [MLS001234358] | 4.92 | 4.94 | 5.30 | 4.74 | < 4.24 | 4.44 | 4.95 |
| CCNc1nc(NCC)n2c(SCC(=O)Nc3ccc(OC(F)F)cc3)nnc2n1 [MLS001234379] | 4.97 | 4.94 | 5.15 | < 4.24 | < 4.24 | < 4.24 |  |
| Nc1nc(=S)c2ncn(C3OC(CO)C(O)C3O)c2[nH]1 (centres unmarked) [MLS000738229] | 4.87 | 5.44 | 5.60 | < 4.24 | 4.54 | < 4.24 |  |
| O=C(O)c1ccc(-c2ccc(/C=c3/sc4nc5ccccc5n4c3=O)o2)cc1Cl [MLS001196440] | 5.02 | 5.14 | 5.15 | < 4.24 | 4.39 | < 4.24 |  |
| CC(=O)Nc1ccc(S(=O)(=O)NCCC(=O)OCC(=O)N2CCN(C(=O)c3ccco3)CC2)cc1 [MLS001078987] | 4.77 |  |  | 4.69 | < 4.24 | < 4.24 | 4.65 |
| COC(=O)c1cc(NC(=O)Cc2cccs2)cc(C(=O)OC)c1 [MLS001211293] | 4.87 |  | 5.15 | < 4.24 | < 4.24 | < 4.24 |  |
| Nc1c(/C=C2/C=CC(=O)C(O)=C2)c(=O)nc2sc(CC(=O)N3CCCCC3)nn12 [MLS001139223] | 5.72 | 5.70 | 5.60 | < 4.24 | < 4.24 | < 4.24 |  |
| COCCN(CC(=O)Nc1cccc(C)c1C)C(=O)c1cc2c(s1)CCC2 [MLS002170765] | 4.82 | 4.74 |  | < 4.24 | < 4.24 | < 4.24 | 4.75 |
| COc1ccc(S(=O)(=O)N2CCN(C(=O)c3cc4c(s3)CCC4)CC2)cc1 [MLS002248682] | 5.57 | 5.09 | 5.70 | < 4.24 | < 4.24 | < 4.24 |  |
| Cn1cnnc1SCC(=O)Nc1ncc([N+](=O)[O-])s1 [MLS002252055] | 5.08 | 5.19 | 5.30 | < 4.24 | 4.39 | < 4.24 |  |
| O=S(=O)(Nc1ccccc1)c1cccc2nsnc12 [MLS000999698] | 5.12 | 4.64 | 5.00 | 4.39 | < 4.24 | < 4.24 |  |
| Nc1c(C(=O)OCC(=O)Nc2cccc([N+](=O)[O-])c2)[nH]c(=O)[nH]c1=O [MLS002171489] | 5.08 | 4.79 | 5.10 | < 4.24 | < 4.24 | < 4.24 |  |
| COc1cccc(NC(=O)CN(C)C(=O)c2cc(-c3ccco3)nc3ccccc23)c1 [MLS001156783] | 4.97 | 4.99 | 5.10 | < 4.24 | < 4.24 | < 4.24 |  |
| Cc1cccc(NC(=O)CNC(=O)CCc2nc3sc4c(c3c(=O)[nH]2)CCCC4)c1C [MLS001156641] | 4.97 | 4.44 | 5.40 | < 4.24 | 4.34 | < 4.24 |  |
